The supplement of paper PMC4862054

What was measured:
CAL-120 [1] = test: normalised response (% of control), CellTiter-Glo; higher = more viable cells (100 = DMSO, 0 = benzethonium chloride kill control); conditions: incubation time: 72 h
Outline: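 For each plate, 0.1 % DMSO was set to 100 and a positive kill control to 0. Breast cancer cell lines (20 µl suspension) were seeded into 384-well plates already holding compound at 5 concentrations in 10-fold steps over a 10,000-fold range chosen per compound, and incubated for 72 h. CellTox Green fluorescence at 485/520 nm was read before CellTiter-Glo luminescence, which followed 10 min at room temperature. Each value is the normalised signal at one concentration.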

BT-474 [2] = conditions: 72 h
Outline: (§1)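 Seeding of breast cancer cell lines (20 µl suspension) was done into 384-well plates pre-loaded with compound at 5 concentrations, 10-fold apart, covering a compound-specific 10,000-fold range. The plates were incubated for 72 h, read for CellTox Green fluorescence (485/520 nm), and then read for CellTiter-Glo luminescence after 10 min at room temperature. Every plate was normalised to 0.1 % DMSO and a positive kill control. Curve fitting gave the EC50, censored at the top concentration.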

MDA-MB-231 [3] = conditions: 72 h
Outline: as §1

MFM-223 [4] = conditions: 72 h
Outline: as §1

HDQ-P1 [5] = conditions: 72 h
Outline: as §1

HCC1143 [6] = conditions: 72 h
Outline: as §1

Hs578T [7] = conditions: 72 h
Outline: as §1

MCF-10A [8] = conditions: 72 h
Outline: as §1

MDA-MB-453 [9] = conditions: 72 h
Outline: as §1

SK-BR-3 = conditions: 72 h
Outline: as §1

MDA-MB-468 [10] = conditions: 72 h
Outline: as §1

HCC1937 [11] = conditions: 72 h
Outline: as §1

CAL-85-1 [12] = conditions: 72 h
Outline: as §1

BT-549 [13] = conditions: 72 h
Outline: as §1

CAL-120 [14] = conditions: 72 h
Outline: as §1

CAL-51 [15] = conditions: 72 h
Outline: as §1

DU-4475 [16] = conditions: 72 h
Outline: as §1

MDA-MB-231 [17] = conditions: 72 h; remark: listed apart in the source
Experimental: (§2)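 Drug sensitivity and resistance testing (DSRT) of breast cancer cell lines in 384-well plates, 5 concentrations in 10-fold dilutions over a compound-specific 10,000-fold range. After 72 h, cytotoxicity was read by CellTox Green fluorescence and viability by CellTiter-Glo luminescence (multiplexed), normalised to DMSO and benzethonium chloride controls. EC50 is the inflection point of the fitted dose-response curve (bottom asymptote free, so it can be relative for partial curves) and is censored at the highest tested concentration. Rows with DSS 0 (no meaningful response) were excluded.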

HDQ-P1 [18] = conditions: 72 h; remark: listed apart in the source
Experimental: as §2

MCF-10A [19] = conditions: 72 h; remark: listed apart in the source
Experimental: as §2

MDA-MB-468 [20] = conditions: 72 h; remark: listed apart in the source
Experimental: as §2

CAL-85-1 [21] = conditions: 72 h; remark: listed apart in the source
Experimental: as §2

CAL-148 [22] = conditions: 72 h
Outline: as §1

MDA-MB-436 = conditions: 72 h
Outline: as §1

HCC1599 = conditions: 72 h
Outline: as §1

CAL-148 [23] = conditions: 72 h; remark: listed apart in the source
Experimental: as §2

MFM-223 [24] = conditions: 72 h; remark: listed apart in the source
Experimental: as §2

Hs578T [25] = conditions: 72 h; remark: listed apart in the source
Experimental: as §2

HCC1143 [26] = conditions: 72 h; remark: listed apart in the source
Outline: (§3)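 Each 384-well plate was pre-loaded with compound dissolved in 5 µl medium, received breast cancer cells in 20 µl suspension, and was incubated 72 h. A 2.5 µl addition of CellTiter-Blue for 2 h at 37 °C was followed by a fluorescence read at 560/590 nm. Data were normalised per plate to vehicle and a positive kill control and checked by Z'-factor. EC50 was fitted from the percent-inhibition dose-response curve, censored at the highest concentration, excluding rows with a drug sensitivity score of zero.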

HCC1937 [27] = conditions: 72 h; remark: listed apart in the source
Outline: as §3

CAL-148 [28] = conditions: 72 h; remark: listed apart in the source
Outline: as §3

CAL-51 [29] = conditions: 72 h; remark: listed apart in the source
Outline: as §3

DU-4475 [30] = conditions: 72 h; remark: listed apart in the source
Outline: as §3

MDA-MB-453 [31] = conditions: 72 h; remark: listed apart in the source
Outline: as §3

BT-474 [32] = conditions: 72 h; remark: listed apart in the source
Experimental: as §2

BT-549 [33] = conditions: 72 h; remark: listed apart in the source
Outline: as §3

HDQ-P1 [34] = conditions: 72 h; remark: listed apart in the source
Outline: as §3

## NC(=O)NO [Hydroxyurea] (100000 nM)
CAL-120 [1]
  normalised response: 96.9%

## COc1cc2c(cc1-c1c(C)noc1C)ncc1[nH]c(=O)n([C@H](C)c3ccccn3)c12 [I-BET151]
BT-474 [2]
  EC50, CellTiter-Glo: 6720 nM
MDA-MB-231 [3]
  EC50, CellTiter-Glo: 1310 nM
MFM-223 [4]
  EC50, CellTiter-Glo: 913 nM
HDQ-P1 [5]
  EC50, CellTiter-Glo: 1340 nM
HCC1143 [6]
  EC50, CellTiter-Glo: 1380 nM
Hs578T [7]
  EC50, CellTiter-Glo: 678 nM
MCF-10A [8]
  EC50, CellTiter-Glo: 855 nM
MDA-MB-453 [9]
  EC50, CellTiter-Glo: 2190 nM
SK-BR-3
  EC50, CellTiter-Glo: 1220 nM
MDA-MB-468 [10]
  EC50, CellTiter-Glo: 3110 nM
HCC1937 [11]
  EC50, CellTiter-Glo: 537 nM
CAL-85-1 [12]
  EC50, CellTiter-Glo: 834 nM
BT-549 [13]
  EC50, CellTiter-Glo: 673 nM
CAL-120 [14]
  EC50, CellTiter-Glo: 574 nM
CAL-51 [15]
  EC50, CellTiter-Glo: 1380 nM
DU-4475 [16]
  EC50, CellTiter-Glo: 4080 nM
MDA-MB-231 [17]
  EC50, CellTox Green: 8480 nM
HDQ-P1 [18]
  EC50, CellTox Green: 123 nM
MCF-10A [19]
  EC50, CellTox Green: 6940 nM
MDA-MB-468 [20]
  EC50, CellTox Green: 3140 nM
CAL-85-1 [21]
  EC50, CellTox Green: 1370 nM

## CC(C)n1nc(-c2ccc3oc(N)nc3c2)c2c(N)ncnc21 [INK128]
BT-474 [2]
  EC50, CellTiter-Glo: 31.9 nM
CAL-148 [22]
  EC50, CellTiter-Glo: 32.2 nM
MDA-MB-231 [3]
  EC50, CellTiter-Glo: 37.4 nM
MFM-223 [4]
  EC50, CellTiter-Glo: 15.4 nM
HDQ-P1 [5]
  EC50, CellTiter-Glo: 24 nM
HCC1143 [6]
  EC50, CellTiter-Glo: 38.2 nM
Hs578T [7]
  EC50, CellTiter-Glo: 27.8 nM
MCF-10A [8]
  EC50, CellTiter-Glo: 43 nM
MDA-MB-453 [9]
  EC50, CellTiter-Glo: 16.8 nM
MDA-MB-436
  EC50, CellTiter-Glo: 23.6 nM
SK-BR-3
  EC50, CellTiter-Glo: 8.43 nM
MDA-MB-468 [10]
  EC50, CellTiter-Glo: 40.6 nM
HCC1937 [11]
  EC50, CellTiter-Glo: 173 nM
CAL-85-1 [12]
  EC50, CellTiter-Glo: 25.5 nM
BT-549 [13]
  EC50, CellTiter-Glo: 22.7 nM
HCC1599
  EC50, CellTiter-Glo: 28.8 nM
CAL-120 [14]
  EC50, CellTiter-Glo: 27.8 nM
CAL-51 [15]
  EC50, CellTiter-Glo: 15.9 nM
DU-4475 [16]
  EC50, CellTiter-Glo: 188 nM
CAL-148 [23]
  EC50, CellTox Green: 56.9 nM
MFM-223 [24]
  EC50, CellTox Green: 494 nM
Hs578T [25]
  EC50, CellTox Green: 130 nM

## O=NN(CCCl)C(=O)NC1CCCCC1 [Lomustine] (10000 nM)
CAL-120 [1]
  normalised response: 98.5%

## O=C(O)CC[C@H]1CC[C@@](c2cc(F)ccc2F)(S(=O)(=O)c2ccc(Cl)cc2)CC1 [MK-0752] (1000 nM)
CAL-120 [1]
  normalised response: 105%

## NC(=O)c1cccc2cn(-c3ccc([C@@H]4CCCNC4)cc3)nc12 [MK-4827]
HCC1143 [26]
  EC50, CellTiter-Blue viability: 1660 nM
HCC1937 [27]
  EC50, CellTiter-Blue viability: 1330 nM
CAL-148 [28]
  EC50, CellTiter-Blue viability: 2330 nM
CAL-51 [29]
  EC50, CellTiter-Blue viability: 1780 nM
DU-4475 [30]
  EC50, CellTiter-Blue viability: 4420 nM
CAL-148 [22]
  EC50, CellTiter-Glo: 2630 nM
MDA-MB-436
  EC50, CellTiter-Glo: 601 nM
MDA-MB-468 [10]
  EC50, CellTiter-Glo: 9350 nM
DU-4475 [16]
  EC50, CellTiter-Glo: 1090 nM

## NC(=O)c1cccc2cn(-c3ccc([C@@H]4CCCNC4)cc3)nc12 [MK-4827] (10000 nM)
CAL-120 [1]
  normalised response: 93.2%

## CO[C@H](C(=O)[C@@H](O)[C@@H](C)O)[C@@H]1Cc2cc3cc(O[C@H]4C[C@@H](O[C@@H]5C[C@@H](O)[C@H](O)[C@@H](C)O5)[C@H](O)[C@@H](C)O4)c(C)c(O)c3c(O)c2C(=O)[C@H]1O[C@H]1C[C@@H](O[C@@H]2C[C@@H](O)[C@@H](O[C@@H]3C[C@](C)(O)[C@H](O)[C@@H](C)O3)[C@@H](C)O2)[C@H](O)[C@@H](C)O1 [Plicamycin] (10000 nM)
CAL-120 [1]
  normalised response: 27%

## C[C@]12C=CC(=O)C=C1CC[C@@H]1[C@@H]2C(=O)C[C@@]2(C)[C@H]1CC[C@]2(O)C(=O)CO [Prednisone] (10000 nM)
CAL-120 [1]
  normalised response: 49%

## CO[C@H]1C[C@@H]2CC[C@@H](C)[C@@](O)(O2)C(=O)C(=O)N2CCCC[C@H]2C(=O)O[C@H]([C@H](C)C[C@@H]2CC[C@@H](O)[C@H](OC)C2)CC(=O)[C@H](C)/C=C(\C)[C@@H](O)[C@@H](OC)C(=O)[C@H](C)C[C@H](C)/C=C/C=C/C=C/1C [Sirolimus] (100 nM)
CAL-120 [1]
  normalised response: 64.5%

## CN1CCN(c2nc(C3=C(c4c[nH]c5ccccc45)C(=O)NC3=O)c3ccccc3n2)CC1 [Sotrastaurin]
HDQ-P1 [5]
  EC50, CellTiter-Glo: > 10000 nM
SK-BR-3
  EC50, CellTiter-Glo: 1460 nM
DU-4475 [16]
  EC50, CellTiter-Glo: 6790 nM

## CN1CCN(c2nc(C3=C(c4c[nH]c5ccccc45)C(=O)NC3=O)c3ccccc3n2)CC1 [Sotrastaurin] (10000 nM)
CAL-120 [1]
  normalised response: 82.7%

## CC/C(=C(\c1ccccc1)c1ccc(OCCN(C)C)cc1)c1ccccc1 [Tamoxifen] (10000 nM)
CAL-120 [1]
  normalised response: 90%

## COc1cc2c(N3CCN(C(=O)Nc4ccc(OC(C)C)cc4)CC3)ncnc2cc1OCCCN1CCCCC1 [Tandutinib]
CAL-148 [28]
  EC50, CellTiter-Blue viability: 605 nM

## C[C@@H](C(=O)O)c1ccc(-c2ccccc2)c(F)c1 [Tarenflurbil]
MDA-MB-453 [31]
  EC50, CellTiter-Blue viability: 1410 nM
BT-474 [32]
  EC50, CellTox Green: > 10000 nM

## Cn1nnc2c(C(N)=O)ncn2c1=O [Temozolomide]
BT-549 [33]
  EC50, CellTiter-Blue viability: 1330 nM
HDQ-P1 [34]
  EC50, CellTiter-Blue viability: 7850 nM

## Cn1nnc2c(C(N)=O)ncn2c1=O [Temozolomide] (10000 nM)
CAL-120 [1]
  normalised response: 95.2%

## CC[C@@H]1C(=O)N(C)c2cnc(Nc3ccc(C(=O)N[C@H]4CC[C@H](N5CCN(CC6CC6)CC5)CC4)cc3OC)nc2N1C(C)C [Volasertib] (1000 nM)
CAL-120 [1]
  normalised response: 49.1%
